PubChem BioAssay AID179 (DTP/NCI, 2004)
pEC50, pIC50: −log10 of the molar value. Active and inactive are the calls of the source.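 Rule for the calls: active = compounds giving half or more protection of infected cells from virus-caused growth loss, again on retest; inactive = the rest.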 Where a SMILES comes first, the peptide text is derived from it.

System: CEM cells HIV-1 protection, formazan growth assay
Assay: NCI AIDS Antiviral Assay
Details: for pIC50: measured here: growth of uninfected CEM cells
Outline: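 Protection of CEM cells against HIV-1 measured as cell growth via soluble formazan read-out, with five concentrations tested on both infected and uninfected cells; failure to protect may reflect toxicity.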

Row | Structure (SMILES) | pEC50 | pIC50 | outcome
1 | S=CN1CCCCC1 | < 3.70 | < 3.70 | 
2 | Cc1cc(S(=O)(=O)NC2=NCC(C)(C)CN2)c(S)cc1Cl | < 3.70 | 4.06 | 
3 | COC(=O)/C=C\C(C#N)(C#N)N=Cc1sccc1C | 6.96 | 6.40 | 
4 | CC(C)C1N(N2C(=O)CS(=O)(=O)C2C(C)C)C(=O)CS1(=O)=O (configuration not stated) | < 3.70 | < 3.70 | 
5 | C=C[C@@]1(O)CCCC[C@@H]1CC(Sc1ccccc1)Sc1ccccc1 | < 3.70 | 4.71 | 
6 | CN(C)C[C@@H]1C2C=CC(C2)[C@@H]1CO (some centres not stated) | < 3.31 | < 3.31 | 
7 | CC(C)(c1ccc(C=O)o1)c1ccc(C(C)(C)c2ccc(C=O)o2)o1 |  |  | inactive
8 | S=C1SCN2CCN3CSC(=S)N(CCN1C2)C3 | < 4.09 | < 4.09 | 
9 | COc1ccc2cc1Oc1ccc(cc1)C[C@@H]1c3cc(c(OC)cc3CCN1C)Oc1c(O)c(OC)cc3c1CCN(C)C3C2 (some centres not stated) |  |  | inactive
10 | Cc1ccc(N/C(Sc2ccccc2)=C(/C(Cl)=C(Cl)Cl)[N+](=O)[O-])c(C)c1 | < 3.70 | 4.56 | 
11 | CCC(CO)NC(=O)Nc1ccc(S(=O)(=O)c2ccc([N+](=O)[O-])cc2)cc1 (configuration not stated) | < 3.70 | 4.92 | 
12 | CN(C)CC1CCc2ccccc2C1=O (configuration not stated) |  |  | inactive
13 | CC1CC[P+](C)(Cc2ccccc2)C1 (mixture of isomers) | < 3.36 | 3.79 | 
14 | CC(C)(C)C(=O)/C=C/c1cccc([N+](=O)[O-])c1 | < 4.23 | 5.06 | 
15 | O=c1cc(N2CCNCC2)nc2ccccn12 | < 3.70 | < 3.70 | 
16 | CN1c2ccccc2NP1(=S)Oc1ccccc1 (configuration not stated) | < 4.03 | < 4.03 | 
17 | Cc1cc(NC(=O)NC/C(Cl)=C/Cl)c2ccccc2n1 | < 3.70 | 4.53 | 
18 | C[C@]12CC[C@@H]3c4cc(Br)c(O)c(Br)c4CC[C@H]3[C@@H]1CCC2=O | < 3.70 | 4.48 | 
19 | COc1ccc2cc3[n+](cc2c1OC)CCc1cc(O)c(O)cc1-3 |  |  | inactive
20 | O=c1ccc2nc3ccc(O)cc3oc-2c1 | < 3.70 | 4.85 | 
21 | CCNC(=S)N/N=C(\C)c1ccccn1 | < 6.70 | 7.80 | 
22 | N/C(=N/N=C/c1cccnc1)NO |  |  | inactive

Row | Structure (SMILES) | pEC50 | pIC50 | outcome
23 | O=C(Nc1ccc(Cl)cc1Cl)C(=O)C(C(=O)c1ccncc1)C1OC(=O)c2ccccc21 (configuration not stated) | < 3.75 | < 3.75 | 
24 | CCCc1cc(=O)oc2c3c(c4c(c12)OC(C)(C)CC4)O[C@@H](C)[C@H](C)[C@H]3O | < 3.70 | 4.48 | inactive
25 | CN(C)C=C1C(=O)NC(=O)NC1=O | < 3.70 | < 3.70 | 
26 | O=C1/C(=C/c2ccc3c(c2)CCC3)Cc2cc3c(cc21)CCC3 | < 3.70 | < 3.70 | 
27 | CCOC(=O)C1N(S(=O)(=O)c2ccc(C)cc2)CCC12c1ccccc1N(C(C)=O)C2c1ccc(OC)c(OC)c1 (configuration not stated) |  |  | inactive
28 | Cn1c2ccccc2c(=O)c2c(O)cc3c(c21)C=CC1(CCCCC1)O3 | < 3.70 | < 3.70 | 
29 | c1ccc2sc(-c3c4ccccc4cc4c3ccc3ccccc34)cc2c1 | < 3.70 | < 3.70 | 
30 | O=CC(O)C(O)C(O)C1CNC(=S)O1 (configuration not stated) | < 3.70 | < 3.70 | 
31 | O=C1OCCOCCOCCOCCOC(=O)c2cccc1c2 | < 3.81 | < 3.81 | 
32 | OC(CN(CCCl)CCCl)C(O)C(O)C(O)CN(CCCl)CCCl (configuration not stated) |  |  | inactive
33 | O=C(Nc1ccc(Cl)cc1)c1cc2cc(N=Nc3ccc(Br)cc3)ccc2oc1=O |  |  | inactive
34 | O=[N+]([O-])c1cc(C(F)(F)F)cc2c1SC1=Nc3ccccc3CN12 |  |  | inactive
35 | c1cc2ccc1C1NCCCN1CCN1CCCNC1c1ccc(cc1)C1NCCCN1CCN1CCCNC21 (configuration not stated) | < 4.88 | 5.03 | 
36 | NC(=O)CS(=O)(=O)NC(N)=O | < 3.70 | < 3.70 | 
37 | CC(=O)NNc1nc(C)c(C(=O)NNC(=O)C(=O)Nc2c(C)cccc2C(C)C)s1 | < 4.22 | 4.28 | 
38 | CC(C)=N.[C-]#[O+].[C-]#[O+].[C-]#[O+].[C-]#[O+].[C-]#[O+].[W] | < 4.86 | < 4.86 | 
39 | COc1ccc(-c2cc(-c3ccccc3)n(C3OCC(OC(C)=O)C(OC(C)=O)C3OC(C)=O)c(=S)c2C#N)cc1 (configuration not stated) | < 3.70 | 4.36 | 
40 | OCCNCN(CNCCO)c1nc(N(CNCCO)CNCCO)nc(N(CNCCO)CNCCO)n1 | < 3.70 | 4.95 | 
41 | NCCC1(N)CCNCC1 |  |  | inactive
42 | O=c1c(Nc2ccccc2)cn(CCOc2ccccc2)c(=O)n1CCOc1ccccc1 | < 3.70 | < 3.70 | 
43 | CC(C)CC(N)C(=O)NC(Cc1cnc[nH]1)C(=O)NC(CC(N)=O)C(=O)NC(C(=O)NC(CO)C(=O)NC(Cc1ccc(O)cc1)C(=O)NC(CO)C(=O)NC(C)C(=O)NC(CCCCN)C(=O)NC(CC(=O)O)C(=O)NC(CC(C)C)C(=O)O)C(C)O (configuration not stated) (H-LHNTSYSAKDL-OH; configuration not given here) | < 4.30 | < 4.30 | 
44 | CC[N+](C)(CC)CCSC1=Nc2ccccc2N=C(c2ccc(Sc3ccccc3)cc2)C1 | < 3.70 | 5.17 | 

Row | Structure (SMILES) | pEC50 | pIC50 | outcome
45 | CCOC(=O)c1cnc2oc(-c3ccc(OC)cc3)nn2c1=O |  |  | inactive
46 | CSc1ncc(Br)c(Nc2c[nH]c(=O)[nH]c2=O)n1 | < 3.70 | < 3.70 | 
47 | Cn1cc(NC(=O)[C@@H]2CCC(N)=N2)cc1C(=O)NCCC(=N)N |  |  | inactive
48 | c1ccc(-c2nc3nc4ccccc4nc3nc2-c2cccnc2)nc1 | < 5.09 | < 5.09 | 
49 | O=C(Nc1ccc(NC2=NCCN2)cc1)c1ccc(C(=O)Nc2ccc(NC3=NCCN3)cc2)c([N+](=O)[O-])c1 | < 3.70 | 4.82 | 
50 | Nc1cn2ncnc2c(=O)[nH]1 | < 3.76 | < 3.76 | 
51 | CC(=O)Nc1ccc(S(=O)(=O)Nc2cnc3ccccc3n2)cc1 | < 3.28 | < 3.28 | 
52 | Nc1c(C(=O)O)nnc2ccc(Cl)cc12 | < 3.70 | 3.73 | 
53 | COC1=CC(=O)O[C@]2(C)OCC(C)C(O)=C12 (some centres not stated) | < 2.96 | < 2.96 | 
54 | O=C(CC(O)(C(F)(F)F)C(F)(F)F)c1ccc(-c2ccccc2)cc1 | < 3.70 | 4.47 | 
55 | O=[N+]([O-])c1ccc(-c2ccc(C3=Nn4c(CNc5ccccc5Cl)nnc4SC3)o2)cc1 | < 4.95 | < 4.95 | 
56 | COc1cc(CNC(=O)CCCCCCCCCCSSCCCCCCCCCCC(=O)NCc2ccc(O)c(OC)c2)ccc1O | < 3.70 |  | 
57 | Nc1nc(Cl)cc(NCCCCCCCCNc2cc(Cl)nc(N)n2)n1 |  |  | inactive
58 | COc1ccc(/C=C2\N=C(NN)N=C2Cl)cc1 | < 3.70 | < 3.70 | 
59 | O=C1c2ccccc2C2(c3ccc(Cl)cc3)NCc3ccccc3CN12 (configuration not stated) | < 3.70 | 4.89 | 
60 | CC(C)(C)OC(=O)NC1CCCC1C(=O)C1=CCCC1 (configuration not stated) | < 3.70 | 3.98 | 
61 | CC1=CC=C2c3ccccc3C=CN2C(=O)C1 | < 3.70 | 4.05 | 
62 | COc1ccccc1N=C1SCC(=O)N1Cc1ccco1 | < 3.87 | 4.05 | 
63 | Nc1cc2[nH]c(=O)c(=O)[nH]c2cc1N | < 3.70 | 4.20 | 
64 | CC1CC[C@@H](C(C)C)[C@H](Oc2nnc(C3OC(CO)C(O)C3O)o2)C1 (some centres not stated) | < 3.70 | < 3.70 | 
65 | O=[N+]([O-])c1cnc(N(CCO)CCO)s1 | < 3.70 | < 3.70 | 
